Measured values from PubChem BioAssay (NCI).
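Interpolation was linear, between the two tested concentrations surrounding the appropriate level; five concentrations were tested over 48 hours in 96-well plates. At the TGI there is no net growth.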

Assays:
Test in all cases: inhibition of tumour cell growth, NCI panel, 48 h
COLO 205 colon = system: COLO 205 colon
EKVX NSCLC = system: EKVX NSCLC
HCT-116 colon = system: HCT-116 colon
M14 melanoma = system: M14 melanoma
MDA-N = system: MDA-N
PC-3 prostate = system: PC-3 prostate
RXF 393 renal = system: RXF 393 renal
SK-MEL-28 melanoma = system: SK-MEL-28 melanoma
SNB-75 CNS = system: SNB-75 CNS
SR leukemia = system: SR leukemia

Row | SMILES | TGI (COLO 205 colon) [µM] | TGI (EKVX NSCLC) [µM] | TGI (HCT-116 colon) [µM] | TGI (M14 melanoma) [µM] | TGI (MDA-N) [µM] | TGI (PC-3 prostate) [µM] | TGI (RXF 393 renal) [µM] | TGI (SK-MEL-28 melanoma) [µM] | TGI (SNB-75 CNS) [µM] | TGI (SR leukemia) [µM]
1 | Cc1nnc(SCc2nc(C#N)c(C#N)nc2CSc2nnc(C)s2)s1 | 25.5 | 36.5 | 11.5 | 37.6 | 49.9 | 41.1 | 18 | > 90.8 | 41.1 | 51.4
2 | O=C(O)CCCc1ccc2c(c1)C(C(=O)O)CC2 (centres undefined) | > 100 | > 100 | > 100 | > 100 | > 100 | > 100 | > 100 | > 100 | > 100 | > 100
3 | CC(=O)OC12c3ccccc3C(c3ccccc31)C1C(=O)N(N=C(C)C)C(=O)C12 (centres undefined) | > 100 | > 100 | > 100 | > 100 | > 100 | > 100 | > 100 | > 100 | > 100 | > 100
4 | BrC1(c2ccccc2)C[n+]2c(-c3ccccc3)cc(-c3ccccc3)cc2-c2ccccc21 (centres undefined) | 0.318 | 18.8 | 8.32 | 15.5 | 1.69 | 3.45 | 0.635 | 21.2 | 0.621 | > 42.5
5 | O=C(Nc1cccc2ccccc12)c1cc2ccccc2oc1=O | > 100 |  | > 100 | > 100 | > 100 | > 100 | > 100 | > 100 | > 100 | > 100
6 | CC(C)CNP(=O)(NCC(C)C)Oc1ccc(CC(NC(=O)OCc2ccccc2)C(=O)OCc2ccccc2)cc1 (centres undefined) | 35.4 | 77.2 | 37.6 | 67.7 | 36 | 30.8 | 36.2 | 30.5 | 39.1 | 29.2
7 | CC1(C)CCC[C@@]2(C)C1CC[C@@]1(CO)O[C@H](C3=CC(=O)OC3O)C[C@H]12 (some centres undefined) | 23.2 | 60.3 | 18.6 | 31.8 | 25.8 | 29.5 | 23.7 | 25.6 | 29.2 | 7.58
8 | O=c1c2ccc(Cl)cc2oc2c(CSc3ccccc3)cccc12 | > 100 | > 100 | > 100 | > 100 | > 100 | > 100 | > 100 | > 100 | > 74.5 | > 100
9 | CC(=O)Oc1cc2c(cc1OCC(F)(F)F)[C@H]1CC[C@]3(C)[C@@H](OC(C)=O)CC[C@H]3[C@@H]1CC2=O | 89.6 | > 72.1 | 55 | > 78.6 | > 100 | 37.6 | 50 | > 67.6 | 52.3 | > 77.9
10 | Cn1c2c(c3c(=O)[nH]ncc31)Cc1ccccc1-2 | 54.3 | > 100 | 60.8 | 38.9 | 34.8 | > 100 | 32.4 | 60.1 | 34.9 | 28.4
11 | NC(=O)CSc1nc2ccccc2c(=O)n1N | > 100 | > 100 | > 100 | > 100 | > 100 | > 100 | > 100 | > 100 | > 100 | > 100
12 | C/C(=N\NC(=S)NC(C)(C)C)c1nc2ncccc2[nH]1 | > 31.6 | > 65 | > 100 | > 100 | > 100 | > 100 | > 100 | > 100 | > 84.5 | > 72.2
13 | CC1(C)C(=O)/C(=C/c2ccccc2)C(C)(C)C1(C)C | > 100 | > 100 | > 100 | > 100 | > 100 | > 100 | > 100 | > 100 | > 100 | > 74.2
14 | O=C(N/N=C/c1ccccc1)c1c(F)c(F)c(F)c(F)c1F | > 100 | > 100 | > 100 | > 100 | > 100 | > 100 | > 100 | > 100 | > 100 | > 100
15 | Cc1ccc(C(=O)Nc2ccc(CP(=O)(O)O)cc2CP(=O)(O)O)cc1N | > 100 | > 100 | > 100 | > 100 | > 100 | > 100 | > 100 | > 100 | > 100 | > 100
16 | CCCCCCCCCCCC1=C(O)C(=O)C(CC2=C(O)C(=O)C(CCCCCCCCCCC)=C(O)C2=O)=C(O)C1=O | > 100 | > 100 | > 100 | > 100 | > 100 | > 100 | 25.2 | > 100 | 37.5 | 42.4
17 | O=C(/C=C/c1ccccc1)c1cc(CN2CCOCC2)c(O)c(CN2CCOCC2)c1 | 23.6 | 98.5 | 31.3 | 43.2 | 39 | 38.4 | 35.8 | 29.4 | 38.9 | 24.2
18 | O=C(OCCN=c1c2ccccc2ccc2ccccc12)c1cc([N+](=O)[O-])cc([N+](=O)[O-])c1 | > 100 | > 100 | > 100 | > 100 | > 100 | > 100 | > 100 | > 100 | > 100 | > 100
19 | COC(=O)CCC(C)[C@H]1CCC2C3CC[C@@H]4CC5(CC[C@]4(C)C3C[C@H](OC(C)=O)[C@@]21C)OOC1(CCCCC1)OO5 (some centres undefined) | > 100 | 7.37 | > 100 | > 100 | 35 | > 100 | > 100 | > 100 | > 100 | > 100
20 | Cc1cccc2c1nc1n2C(=O)c2ccccc2-1 | > 100 | > 100 | > 100 | > 100 | > 100 | > 100 | > 100 | > 100 | > 100 | > 100
